Columns and labels:
Type in all cases: cell-based
GAPDH mRNA = GAPDH mRNA amount (QuantiGene bDNA method), Test Example 4; conditions: Human dermal papilla cell; human dermal papilla cells, 24 hours, concentration at which the mRNA amount is halved, average of 2 wells
Method: (§1) Human dermal papilla cells, which were purchased from Toyobo, were cultured in MEM (Invitrogen) containing 12% FBS.
(§2) The dermal papilla cells in passage 5 were sowed in a 96-well plate to give a density of 1×10^4 cells/well and cultured overnight. Then, the medium was replaced by a medium to which no compound was added or a medium containing the compounds and the culture was continued for additional 24 hours. After the completion of the culture, WNT-5A or GAPDH mRNA amount was measured by using QuantiGene High Volume Kit (Bayer Medical) by the branched DNA (bDNA) signal amplification method (Drug Metabolism and Disposition, 28(5), 608-616 (2000)). In accordance with the protocol attached to QuantiGene High Volume Kit, cells were lysed by using Lysis Mixture and the lysis solution was added to capture plate. Next, a set of probes specific to WNT-5A or GPDH was added and allowed to react at 53° C. for 20 hours. After washing the plate by using 0.1×SSC containing 0.03% lauryl sulfate, an amplification probe comprising bDNA was added and allowed to react at 46° C. for 1 hour. After washing the plate, a labeling probe labeled with alkaline phosphatase was added and allowed to react at 46° C. for 1 hour. After washing the plate, a substrate Lumi-Phos Plus was added and allowed to react at 46° C. for 30 minutes. Then, the luminescence was measured by using WALLAC 1420ARVOsx.
As GAPDH-specific probe set, use was made of bDNA probe set for human GAPDH (XenoTech LLC, B0960).
(§3) The amounts of WNT-5A and GAPDH mRNAs are expressed in relative values (%) to the control case of adding of no compound and the concentration of a compound at which the mRNA amount is halved (IC50) is calculated as an index of WNT-5A mRNA decreasing activity of the corresponding compound.

[1] = test system: Human dermal papilla cells; test: Dermal papilla cell growth promoting activity (WST-1, spheroid culture), Test Example 5; conditions: for activity at 1 µM / activity at 4 µM / activity at 16 µM: Homo sapiens, Human dermal papilla cell, 72 hours, average of 3 wells, read-out: ΔO.D. 450 nm/620 nm (% of control); for growth promoting activity on dermal papilla cells: at 1 μM; for growth of dermal papilla cells: no concentration stated
Method: as §1
The dermal papilla cells in passage 5 were sowed in a 96-well plate for spheroid culture to give a density of 1.5×10^4 cells/well and cultured overnight. Then, the medium was replaced by a medium to which no compound was added or a medium containing the compound and the culture was continued for additional 72 hours. After the completion of the culture, cells were counted by using a Cell Counting Kit (Wako Pure Chemicals). Five hours before the completion of the culture, WST-1 reagent at 1/10 amount per medium was added to each medium and then the optical density (O.D. 450 nm/620 nm) of the medium was measured at the completion of the culture. A positive correlation was observed between the cell number and optical density within the range of 0.25 to 4×10^4 cells/well.
In this table, each numerical value means an average of 6 wells (control group) or 3 wells (test groups). To compare the control group to the test groups, Student's t-test was employed: • *:P<0.05, **:P<0.01, ***:P<0.001.

WNT-5A mRNA = test: Activity of decreasing WNT-5A mRNA amount (QuantiGene bDNA method), Test Example 4; conditions: human dermal papilla cells; for IC50: concentration at which the mRNA amount is halved, average of 2 wells
Method: as §1, §2
The WNT-5A-specific probe set was designed based on the sequence of the coding region of human WNT-5A mRNA. As capture extenders (CEs), 10 probes (SEQ ID NOs:12 to 21) were used; as label extenders (LEs), 31 probes (SEQ ID NOs:22 to 52) were employed; and as blockers, […] (SEQ ID NOs:53 to 60) were employed.
as §3

[2] = Homo sapiens, Human dermal papilla cell, 24 h

IC50 (GAPDH mRNA)	IC50 (WNT-5A mRNA; [2])	IC50 (WNT-5A mRNA; 24 hours)	Compound	activity at 1 µM [1]	activity at 4 µM [1]	activity at 16 µM [1]	growth promoting activity on dermal papilla cells [1]	IC50 (WNT-5A mRNA; Human dermal papilla cell, 24 hours)	growth of dermal papilla cells [1]	WNT-5A mRNA amount / expression in dermal papilla cells (WNT-5A mRNA)
13.5 µM			C[C@@H]1C[C@@H]2O[C@H]2/C=C\C=C\C(=O)Cc2c(Cl)c(OCC(=O)Sc3ccccc3)cc(OCC(=O)Sc3ccccc3)c2C(=O)O1 [Compound 52]	124.5 ± 1%	143 ± 9.5%	197 ± 5.4%	significant growth promoting activity		promote the growth	effectively inhibit
45.5 µM			C[C@@H]1C[C@@H]2O[C@H]2[C@H](Sc2ccccc2)/C=C/CC(=O)Cc2c(Cl)c(O)cc(O)c2C(=O)O1 [Compound 53]	127 ± 14.3%	150 ± 12.8%	184 ± 3.6%	significant growth promoting activity		promote the growth	effectively inhibit
> 30 µM	2.37 µM		CC(=O)S[C@@H]1/C=C/CC(=O)Cc2c(Cl)c(O)cc(O)c2C(=O)O[C@H](C)C[C@@H]2O[C@H]21 [Compound 54]	80 ± 2.4%	97.1 ± 5.6%	135 ± 0.9%				
> 30 µM	0.74 µM		CC(=O)S[C@@H]1/C=C\CC(=O)Cc2c(Cl)c(O)cc(O)c2C(=O)O[C@H](C)C[C@@H]2O[C@H]21 [Compound 55]	89 ± 1.8%	127 ± 7.2%	176 ± 9.8%				
80 µM	< 1 µM	0.5 µM	C[C@@H]1C[C@@H]2O[C@H]2/C=C\C=C\C(=O)Cc2c(Cl)c(OC(=O)c3cccnc3)cc(OC(=O)c3cccnc3)c2C(=O)O1 [Compound 58]	123 ± 1.8%	150 ± 9.4%	217 ± 14.5%	significant growth promoting activity		promote the growth	effectively inhibit
109 µM	8.28 µM		CC1C/C=C/C(O)C/C=C/C(=O)Cc2c(Cl)c(O)cc(O)c2C(=O)O1 (stereo not shown) [Compound 65]	92.1 ± 6.7%	87.6 ± 8.7%	141 ± 5.3%				
50.6 µM	10.7 µM		CC1C/C=C/C(O)C/C=C/C(=O)Cc2cc(O)cc(O)c2C(=O)O1 (stereo not shown) [Compound 68]							
> 120 µM	9.37 µM		CC1CC2OC2CC(O)CCC(=O)Cc2c(Cl)c(O)cc(O)c2C(=O)O1 (stereo not shown) [Compound 73]	91.7 ± 5.7%	81.2 ± 7.8%	206 ± 9.2%				
55.9 µM	8.56 µM		C[C@@H]1C[C@@H]2O[C@H]2/C=C\C=C\C(=O)Cc2c(Cl)c(OC3OC(CO)C(O)C3O)cc(O)c2C(=O)O1 (stereo partly shown) [Compound 76]	80 ± 5.6%	77.1 ± 7%	121 ± 6.3%				
> 120 µM	8.13 µM		CC1CC2OC2CC2=CC=C(Cc3c(Cl)c(O)cc(O)c3C(=O)O1)O2 (stereo not shown) [Compound 77]	81.6 ± 4.4%	86.3 ± 5%	181 ± 21.7%			promote the growth	effectively inhibit
38.2 µM	0.9 µM		COc1cc(O)c2c(c1)/C=C/CC(O)C(O)C(=O)/C=C\CC(C)OC2=O (stereo not shown) [Compound 79]	87.5 ± 9.9%	98.6 ± 3.6%	120 ± 4.1%			excellent effect of promoting the growth	

Continued, compound first:

Compound	IC50 (GAPDH mRNA)	IC50 (WNT-5A mRNA; [2])	IC50 (WNT-5A mRNA; 24 hours)	activity at 1 µM [1]	activity at 4 µM [1]	activity at 16 µM [1]	growth promoting activity on dermal papilla cells [1]	IC50 (WNT-5A mRNA; Human dermal papilla cell, 24 hours)	growth of dermal papilla cells [1]	WNT-5A mRNA amount / expression in dermal papilla cells (WNT-5A mRNA)
C[C@@H]1C[C@@H]2O[C@H]2/C=C\C=C\C(=O)Cc2c(Cl)c(O)cc(O)c2C(=O)O1 [Compound 1, Radicicol]	28.2 µM			133 ± 11.6%	184 ± 12.1%	145 ± 13%	significant growth promoting activity			
CC(=O)Oc1cc(OC(C)=O)c2c(c1Cl)CC(=O)/C=C/C=C\[C@@H]1O[C@H]1C[C@@H](C)OC2=O [Compound 2]	26.4 µM			143 ± 10.1%	167 ± 8.5%	241 ± 25.3%	significant growth promoting activity			
C[C@@H]1C[C@@H]2O[C@H]2CCCCC(=O)Cc2c(Cl)c(O)cc(O)c2C(=O)O1 [Compound 4]	> 30 µM	3.46 µM		97.4 ± 24.4%	148 ± 4.9%	180 ± 6.9%				
C[C@@H]1C[C@@H]2O[C@H]2/C=C\C=C\[C@H](O)Cc2c(Cl)c(O)cc(O)c2C(=O)O1 [Compound 5]	> 30 µM	3.47 µM		110 ± 45%	175 ± 29.2%	236 ± 26.4%				
C[C@@H]1C[C@H](OC=O)[C@@H](Cl)/C=C\C=C\C(=O)Cc2c(Cl)c(O)cc(O)c2C(=O)O1 [Compound 18]	6.58 µM	< 1 µM	0.63 µM	116 ± 9%	147 ± 11.3%	211 ± 25.9%	significant growth promoting activity			
O=C1c2no[n+]([O-])c2CCC1NO (stereo not shown) [Compound 24]	21.1 µM			108 ± 6.9%	104 ± 10.5%	120 ± 3.7%		4.74 µM	excellent effect of promoting the growth	
C[C@@H]1C[C@@H]2O[C@H]2/C=C\C=C\C(=NO)Cc2c(Cl)c(O)cc(O)c2C(=O)O1 [Compound 35]	4.29 µM			161 ± 3.5%	182 ± 3.7%	159 ± 18.3%	significant growth promoting activity			
C[C@@H]1CC2OC2C/C=C\C[C@H](O)Cc2c(Cl)c(O)cc(O)c2C(=O)O1 (stereo partly shown) [Compound 38]	> 120 µM	6.42 µM		104 ± 2.6%	89.6 ± 7.3%	125 ± 5.1%				

— patent US20050182129A1, “Hair growth tonic” (priority 2002, published 2005)
